The record followed here is patent publication US12187756B2 (priority 2018, dated 2025).

For this data set the following is noted: buffer.

In the case of `CC(=O)NC1[C@H](O[C@@H]2C(CO)O[C@H](O[C@H]3C(CO)O[C@@H](O[C@@H]4C(O)[C@@H](COP(=O)(O)OCCCCCN)OC(CO)[C@H]4O)C(NC(C)=O)[C@H]3O[C@@H]3OC(CO)[C@@H](O)[C@H](O)C3O)[C@@H](O)C2O)OC(CO)[C@H](O)[C@@H]1O[C@@H]1OC(CO)[C@@H](O)[C@H](O)C1O` (stereo partly shown) [compound 33], the “compound remaining intact (HPLC)” value is 50%.
